Test results: the NIST ThermoML archive (doi:10.1016/j.jct.2013.09.001)

Legend:
[1] = 101 kPa, Liquid; for viscosity: Concentric cylinders viscometry; for mass density: Vibrating tube method
[2] = xn = mol fraction of the nth substance listed; conditions: 101 kPa, Liquid; for viscosity: Concentric cylinders viscometry; for mass density: Vibrating tube method

CC(=O)[O-].CCCCn1cc[n+](C)c1 [1-butyl-3-methylimidazolium acetate]
[1]
Conditions | mass density [kg/m3] | viscosity [mPa·s]
293.15 K | 1056.1 | 549.9
303.15 K | 1049.6 | 257.4
313.15 K | 1043.5 | 135.5
323.15 K | 1037.4 | 78.4
333.15 K | 1031.3 | 49
343.15 K | 1025.4 | 32.5
353.15 K | – | 22.7

CC(=O)[O-].CCCCn1cc[n+](C)c1 [1-butyl-3-methylimidazolium acetate] + CN(CCO)CCO
[2]
Conditions | mass density, x2 = 0 [kg/m3] | mass density, x2 = 0.2 [kg/m3] | mass density, x2 = 0.4 [kg/m3] | mass density, x2 = 0.6 [kg/m3] | mass density, x2 = 0.8 [kg/m3] | viscosity, x2 = 0 [mPa·s] | viscosity, x2 = 0.2 [mPa·s] | viscosity, x2 = 0.4 [mPa·s] | viscosity, x2 = 0.6 [mPa·s] | viscosity, x2 = 0.8 [mPa·s]
293.15 K | 1056.1 | 1052.6 | 1049.5 | 1046 | 1043.4 | 549.9 | 369.6 | 254.3 | 164.4 | 117.9
303.15 K | 1049.6 | 1046.1 | 1043 | 1039.2 | 1036.4 | 257.4 | 188.9 | 139.8 | 94.9 | 68.9
313.15 K | 1043.5 | 1040.1 | 1037 | 1033.1 | 1029.8 | 135.5 | 106.6 | 83.2 | 58.8 | 43.1
323.15 K | 1037.4 | 1034.1 | 1030.9 | 1026.8 | 1023.1 | 78.4 | 65 | 52.9 | 38.7 | 28.4
333.15 K | 1031.3 | 1028.1 | 1024.7 | 1020.5 | 1016.4 | 49 | 42.3 | 35.6 | 26.7 | 19.7
343.15 K | 1025.4 | 1022.3 | 1018.8 | 1014.4 | 1009.8 | 32.5 | 29 | 25.1 | 19.3 | 14.2
353.15 K | – | – | – | – | – | 22.7 | 20.7 | 18.3 | 14.4 | 10.6
